Legend:
[1] = target: T1, catalytic domain of human Bub1 (amino acids 704-1085) (Homo sapiens, UniProt O43683); assay: Bub1 kinase assay (TR-FRET); assay type: biochemical; settings: 10 μM ATP, avg, read-out: Bub1 avg (IC50 [mol/l])
T1 construct: catalytic domain of human Bub1 (amino acids 704-1085); His6 (N); made in house; host or cells: insect cells (Hi5)
Outline: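 Readout is the 665/620 nm TR-FRET ratio from anti-phosphoserine antibody, Eu-labelled anti-mouse IgG and streptavidin-XL665, scaled between no-enzyme and uninhibited controls. Reaction: 1 μM biotinylated peptide, 10 μM ATP, 60 min, 22 °C, after 15 min compound preincubation with His6-Bub1 (704-1085, insect-expressed, ~200 ng/ml).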

HeLa = assay: Proliferation assay (crystal violet), HeLa; assay type: cell-based; settings: Homo sapiens, HeLa, 96 h, HeLa cells; 4 days incubation; crystal violet staining; read-out: IC50 inhibition of proliferation, HeLa
Outline: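 Crystal violet proliferation readout, 4-day compound incubation, 0.001–10 μM, final DMSO 0.5%. Zero-point plate stained at time of dosing set as 0%, untreated control as 100%; IC50 via 4-parameter fit.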

T1 sequence (O43683 704-1085): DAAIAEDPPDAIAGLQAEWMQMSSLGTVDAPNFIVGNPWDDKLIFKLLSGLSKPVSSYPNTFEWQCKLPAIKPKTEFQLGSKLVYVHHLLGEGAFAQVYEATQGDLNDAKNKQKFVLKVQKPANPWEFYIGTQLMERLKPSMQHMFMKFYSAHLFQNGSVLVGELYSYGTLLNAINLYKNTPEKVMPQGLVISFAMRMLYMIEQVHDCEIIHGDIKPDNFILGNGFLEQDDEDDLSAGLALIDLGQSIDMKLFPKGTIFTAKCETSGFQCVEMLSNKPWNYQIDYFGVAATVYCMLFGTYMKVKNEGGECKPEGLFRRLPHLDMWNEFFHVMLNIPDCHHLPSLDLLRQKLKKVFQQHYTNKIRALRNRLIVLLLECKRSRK

| SMILES | IC50 [1] | IC50 (HeLa) |
| --- | --- | --- |
| Cc1nsc(Nc2cc(C#N)ccn2)c1C(=O)Nc1ccc(OC2CCCNC2)nc1 (centres unmarked) [Example 35, 5-[(4-Cyanopyridin-2-yl)amino]-3-methyl-N-[6-(piperidin-3-yloxy)pyridin-3-yl]-1,2-thiazole-4-carboxamide] | ≥ 20 µM | 10 µM |
| Cc1nsc(Nc2cnc3ccccc3n2)c1C(=O)Nc1cccc(C(=O)N2CCN(C(=O)OC(C)(C)C)CC2)c1 [Example 55, tert-Butyl 4-[3-({[3-methyl-5-(quinoxalin-2-ylamino)-1,2-thiazol-4-yl]carbonyl}amino)-benzoyl]piperazine-1-carboxylate] | ≥ 20 µM | 10 µM |
| Cc1nsc(Nc2cc(C#N)ccn2)c1C(=O)Nc1ccc(OCCCNC(=O)OC(C)(C)C)nc1 [Example 43, tert-Butyl [3-({5-[({5-[(4-cyanopyridin-2-yl)amino]-3-methyl-1,2-thiazol-4-yl}-carbonyl)amino]pyridin-2-yl}oxy)propyl]carbamate] | ≥ 20 µM | 10 µM |
| Cc1nsc(Nc2cnc3ccccc3n2)c1C(=O)Nc1ccc(OCCCNC(=O)OC(C)(C)C)nc1 [Example 42, tert-Butyl (3-{[5-({[3-methyl-5-(quinoxalin-2-ylamino)-1,2-thiazol-4-yl]carbonyl}-amino)pyridin-2-yl]oxy}propyl)carbamate] | ≥ 20 µM | 2.3 µM |
| Cc1nsc(Nc2ccc(C#N)cn2)c1C(=O)Nc1ccc(OC2CCCNC2)nc1 (centres unmarked) [Example 37, 5-[(5-Cyanopyridin-2-yl)amino]-3-methyl-N-[6-(piperidin-3-yloxy)pyridin-3-yl]-1,2-thiazole-4-carboxamide] | ≥ 20 µM | 10 µM |
| Cc1nsc(Nc2nc3c(C(F)(F)F)cccc3s2)c1C(=O)Nc1ccc(OCCO)nc1 [Example 2, N-[6-(2-Hydroxyethoxy)pyridin-3-yl]-3-methyl-5-{[4-(trifluoromethyl)-1,3-benzo-thiazol-2-yl]amino}-1,2-thiazole-4-carboxamide] | ≥ 20 µM | 4.9 µM |
| Cc1nsc(Nc2ccc(C#N)cn2)c1C(=O)Nc1ccc(Nc2ccc(F)c(F)c2)nc1 [Example 433, 5-[(5-Cyanopyridin-2-yl)amino]-N-{6-[(3,4-difluorophenyl)amino]pyridin-3-yl}-3-methyl-1,2-thiazole-4-carboxamide] | > 20 µM | 5.4 µM |
| Cc1nsc(Nc2cnc3ccccc3n2)c1C(=O)Nc1cccc(C(=O)N[C@H](C(=O)OC(C)(C)C)[C@@H](C)OC(C)(C)C)c1 [Example 57, tert-Butyl O-tert-butyl-N-[3-({[3-methyl-5-(quinoxalin-2-ylamino)-1,2-thiazol-4 yl]carbonyl}amino)-benzoyl]threoninate] | ≥ 20 µM | 10 µM |
| Cc1nsc(Nc2cnccn2)c1C(=O)Nc1ccc(OCCCN)nc1 [Example 48, N-[6-(3-Aminopropoxy)pyridin-3-yl]-3-methyl-5-(pyrazin-2-ylamino)-1,2-thiazole-4-carboxamide] | ≥ 20 µM | 10 µM |
| Cc1nsc(Nc2ccc(C#N)cn2)c1C(=O)Nc1ccc(OCCCNC(=O)OC(C)(C)C)nc1 [Example 46, tert-Butyl [3-({5-[({5-[(5-cyanopyridin-2-yl)amino]-3-methyl-1,2-thiazol-4-yl}-carbonyl)amino]pyridin-2-yl}oxy)propyl]carbamate] | ≥ 20 µM | 10 µM |
| Cc1nsc(Nc2cc(C#N)ccn2)c1C(=O)Nc1ccc(OCCCNCC(F)F)nc1 [Example 45, 5-[(4-Cyanopyridin-2-yl)amino]-N-(6-{3-[(2,2-difluoroethyl)amino]propoxy}pyridin-3-yl)-3-methyl-1,2-thiazole-4-carboxamide] | ≥ 20 µM | 10 µM |

The next lines start with the values.

| IC50 [1] | IC50 (HeLa) | SMILES |
| --- | --- | --- |
| > 20 µM | 0.35 µM | Cc1nsc(Nc2cnc(C(F)(F)F)cn2)c1C(=O)Nc1ccc(F)c(O[C@H]2CCN(CCC(F)(F)F)C2)c1 [Example 415, N-(4-Fluoro-3-{[(3S)-1-(3,3,3-trifluoropropyl)pyrrolidin-3-yl]oxy}phenyl)-3-methyl-5-{[5-(trifluoromethyl)pyrazin-2-yl]amino}-1,2-thiazole-4-carboxamide] |
| > 20 µM | 0.76 µM | Cc1nsc(Nc2cnc(C(F)(F)F)cn2)c1C(=O)Nc1ccc(F)c(OC[C@H]2CCCN(CC(F)(F)F)C2)c1 [Example 419, N-(4-Fluoro-3-{[(3S)-1-(2,2,2-trifluoroethyl)piperidin-3-yl]methoxy}phenyl)-3-methyl-5-{[5-(trifluoromethyl)pyrazin-2-yl]amino}-1,2-thiazole-4-carboxamide] |
| ≥ 20 µM | 0.63 µM | Cc1nsc(Nc2cnc(C(F)(F)F)cn2)c1C(=O)Nc1ccc(CCC2CCN(CCC(F)(F)F)CC2)nc1 [Example 420, 3-Methyl-5-{[5-(trifluoromethyl)pyrazin-2-yl]amino}-N-(6-{2-[1-(3,3,3-trifluoro-propyl)piperidin-4-yl]ethyl}pyridin-3-yl)-1,2-thiazole-4-carboxamide] |
| > 20 µM | 0.17 µM | Cc1nsc(Nc2cnc(C(F)(F)F)cn2)c1C(=O)Nc1ccc(O[C@@H]2CN(CC(F)(F)F)C[C@@H]2F)nc1 [Example 410, N-(6-{[(3R,4S)-4-Fluoro-1-(2,2,2-trifluoroethyl)pyrrolidin-3-yl]oxy}pyridin-3-yl)-3-methyl-5-{[5-(trifluoromethyl)pyrazin-2-yl]amino}-1,2-thiazole-4-carboxamide] |
| > 20 µM | 0.77 µM | Cc1nsc(Nc2cnc(C(F)(F)F)cn2)c1C(=O)Nc1ccc(F)c(OC[C@H]2CCCN(CC(F)F)C2)c1 [Example 400, N-(3-{[(3S)-1-(2,2-difluoroethyl)piperidin-3-yl]methoxy}-4-fluorophenyl)-3-methyl-5-{[5-(trifluoromethyl)pyrazin-2-yl]amino}-1,2-thiazole-4-carboxamide] |
| > 20 µM | 0.19 µM | Cc1nsc(Nc2cnc(C(F)(F)F)cn2)c1C(=O)Nc1ccc(O[C@@H]2CN(CCC(F)(F)F)C[C@@H]2F)nc1 [Example 409, N-(6-{[(3R,4S)-4-Fluoro-1-(3,3,3-trifluoropropyl)pyrrolidin-3-yl]oxy}pyridin-3-yl)-3-methyl-5-{[5-(trifluoromethyl)pyrazin-2-yl]amino}-1,2-thiazole-4-carboxamide] |
| > 20 µM | 1.2 µM | Cc1nsc(Nc2cnc(C(F)(F)F)cn2)c1C(=O)Nc1ccc(F)c(OC[C@H]2CCCN(CCC(F)(F)F)C2)c1 [Example 418, N-(4-Fluoro-3-{[(3S)-1-(3,3,3-trifluoropropyl)piperidin-3-yl]methoxy}phenyl)-3-methyl-5-{[5-(trifluoromethyl)pyrazin-2-yl]amino}-1,2-thiazole-4-carboxamide] |
| > 20 µM | 0.27 µM | Cc1nsc(Nc2cnc(C(F)(F)F)cn2)c1C(=O)Nc1ccc(F)c(O[C@@H]2CCN(CC(F)(F)F)C2)c1 [Example 413, N-(4-Fluoro-3-{[(3R)-1-(2,2,2-trifluoroethyl)pyrrolidin-3-yl]oxy}phenyl)-3-methyl-5-{[5-(trifluoromethyl)pyrazin-2-yl]amino}-1,2-thiazole-4-carboxamide] |
| > 20 µM | 0.34 µM | Cc1nsc(Nc2cnc(C(F)(F)F)cn2)c1C(=O)Nc1ccc(OCC2CCN(CCC(F)(F)F)CC2(F)F)nc1 (centres unmarked) [Example 402, N-(6-{[3,3-difluoro-1-(3,3,3-trifluoropropyl)piperidin-4-yl]methoxy}pyridin-3-yl)-3-methyl-5-{[5-(trifluoromethyl)pyrazin-2-yl]amino}-1,2-thiazole-4-carboxamide] |
| > 20 µM | 0.17 µM | Cc1nsc(Nc2cnc(C(F)(F)F)cn2)c1C(=O)Nc1ccc(O[C@@H]2CN(CC(F)F)C[C@@H]2F)nc1 [Example 411, N-(6-{[(3R,4S)-1-(2,2-Difluoroethyl)-4-fluoropyrrolidin-3-yl]oxy}pyridin-3-yl)-3-methyl-5-{[5-(trifluoromethyl)pyrazin-2-yl]amino}-1,2-thiazole-4-carboxamide] |
| ≥ 20 µM | 0.86 µM | Cc1nsc(Nc2cnc(C(F)(F)F)cn2)c1C(=O)Nc1ccc(F)c(OCCCNC(=O)C(F)(F)F)c1 [Example 427, N-(4-Fluoro-3-{3-[(trifluoroacetyl)amino]propoxy}phenyl)-3-methyl-5-{[5-(trifluoro-methyl)pyrazin-2-yl]amino}-1,2-thiazole-4-carboxamide] |
| > 20 µM | 0.26 µM | CCCN1C[C@H](F)[C@H](Oc2ccc(NC(=O)c3c(C)nsc3Nc3cnc(C(F)(F)F)cn3)cn2)C1 [Example 408, N-(6-{[(3R,4S)-4-Fluoro-1-propylpyrrolidin-3-yl]oxy}pyridin-3-yl)-3-methyl-5-{[5-(trifluoromethyl)pyrazin-2-yl]amino}-1,2-thiazole-4-carboxamide] |
| 1.8 µM | 0.41 µM | Cc1nsc(Nc2cnc(C(F)(F)F)cn2)c1C(=O)Nc1ccc(F)c(O[C@H]2CCN(CC(F)F)C2)c1 [Example 417, N-(3-{[(3S)-1-(2,2-Difluoroethyl)pyrrolidin-3-yl]oxy}-4-fluorophenyl)-3-methyl-5-{[5-(trifluoromethyl)pyrazin-2-yl]amino}-1,2-thiazole-4-carboxamide] |
| > 20 µM | 0.43 µM | Cc1nsc(Nc2cnc(C(F)(F)F)cn2)c1C(=O)Nc1ccc(OCC2CCN(CC(F)F)CC2(F)F)nc1 (centres unmarked) [Example 401, N-(6-{[1-(2,2-difluoroethyl)-3,3-difluoropiperidin-4-yl]methoxy}pyridin-3-yl)-3-methyl-5-{[5-(trifluoromethyl)pyrazin-2-yl]amino}-1,2-thiazole-4-carboxamide] |
